Holding throughout (assay type): in vivo
Test [1] relates to adult common house mosquitos. Nature of the test: Spray knockdown test on adult common house mosquitos (Test Examples 5, 6). The following applies: active ingredient 0.02% w/v oil solution, 0.5 ml sprayed, counted after 15 minutes. How it is done: The formulations of Compounds (2), (7), (48) and (49) of the present invention obtained in Formulation Example 7 were diluted with a mixture solution with a ratio of isopropyl alcohol/deodorized kerosene of 1/9, so as to have a concentration of active ingredient of 0.1% w/v, to prepare a test drug solution.
(§1) Ten adult common house mosquitos were released in a polyethylene cup (a bottom diameter of 10.6 cm) which was then capped with 16-mesh nylon gauze. The polyethylene cup was placed on the bottom of a test chamber (bottom: 46 cm×46 cm, height: 70 cm). From a height of 30 cm above the upper surface of the polyethylene cup, 0.5 ml of the test drug solution was sprayed using a spray gun (a spraying pressure of 0.4 kg/cm^2). Immediately after spraying, the cup was taken out from the test container, and after 15 minutes, the number of knockdown insects was counted to obtain a knockdown rate. The knockdown rate was calculated by the following equation.
(§2) Knockdown Rate(%)=(Number of Knockdown Insects/Number of Tested Insects)×100
Each of the formulations of Compounds (19) and (40) to (42) of the present invention obtained in Formulation Example 7 was diluted with a mixture solution with a ratio of isopropyl alcohol/deodorized kerosene of 1/9, so as to have a concentration of active ingredient of 0.02% w/v, to prepare a test drug solution. […]

For test [2], the system named is third-instar larvae of diamondback moth (Plutella xylostella). Briefly: Cabbage foliar spray test on diamondback moth larvae (Test Example 11). As to conditions: 500 ppm spray, 20 ml/cup on cabbage, after 5 days. How it is done: On the other hand, a cabbage was planted in a polyethylene cup and grown until the third true leaf or the fourth true leaf was developed. The test spray solution was sprayed in a ratio of 20 ml/cup on the cabbage. After the drug solution sprayed on the cabbage was dried, 10 third-instar larvae of diamondback moth (Plutella xylostella) were put on the cabbage. After 5 days, the number of diamondback moths was counted, and a controlling value was calculated by the following equation. […] Letters in the formula have the following meanings. Cb: the number of insects in an untreated section before treatment Cai: the number of insects in an untreated section on observation Tb: the number of insects in a treated section before treatment Tai: the number of insects in a treated section on observation

For test [3], the system named is adult houseflies (Musca domestica). Briefly: Filter paper/sucrose bait knockdown test on adult houseflies (Test Example 7). As to conditions: 0.7 ml on filter paper with sucrose bait, after 2 hours, read-out: knockdown rate. How it is done: Each of the formulations of Compounds (2), (4) to (6), (8), (9), (18), (21) to (23), (27), (29), (32) to (36), (38), (41), (42) and (53) of the present invention obtained in Formulation Example 15 was diluted with water, so as to have a concentration of active ingredient of 500 ppm, to prepare a test drug solution.
On the bottom of a polyethylene cup with a diameter of 5.5 cm, a filter paper of the same size was laid down, and 0.7 ml of the test drug solution was dropped onto the filter paper, then 30 mg of sucrose was uniformly put as bait. Ten adult houseflies (Musca domestica) were released in the polyethylene cup which was then capped. After 2 hours, the number of knockdown insects was counted to obtain a knockdown rate. The knockdown rate was calculated by the following equation.
as §2

Test [4] has the same test system. Nature of the test: Filter paper/sucrose bait mortality test on adult houseflies (Test Example 8). The following applies: 0.7 ml on filter paper with sucrose bait, after 24 hours. How it is done:
Each of the formulations of Compounds (2) to (6), (8), (12), (15) to (18), (27), (29), (33), (37) to (39), (41), (42) and (45) of the present invention obtained in Formulation Example 15 was diluted with water, so as to have a concentration of active ingredient of 500 ppm, to prepare a test drug solution.
On the bottom of a polyethylene cup with a diameter of 5.5 cm, a filter paper of the same size was laid down, and 0.7 ml of the test drug solution was dropped onto the filter paper, then 30 mg of sucrose was uniformly put as bait. Ten adult houseflies (Musca domestica) were released in the polyethylene cup which was then capped.

Another test relates to adult houseflies. Nature of the test: Spray knockdown test on adult houseflies (Test Examples 3, 4). As to conditions: Musca domestica, 10 min; active ingredient 0.5% w/v oil solution, 0.5 ml sprayed, counted after 10 minutes; read-out: knockdown rate. How it is done:
The formulations of Compounds (7), (46) and (48) of the present invention obtained in Formulation Example 7 were diluted with a mixture solution with a ratio of isopropyl alcohol/deodorized kerosene of 1/9, so as to have a concentration of active ingredient of 2.0% w/v, to prepare a test drug solution.
as §1, with “houseflies (5 males and 5 females)” for “common house mosquitos”, “0.9” for “0.4”, “10” for “15”
as §2
The formulations of Compounds (4), (6), (8), (17) to (19), (28), (29), (33), (40) to (42) and (51) to (53) of the present invention obtained in Formulation Example 7 were diluted with a mixture solution with a ratio of isopropyl alcohol/deodorized kerosene of 1/9, so as to have a concentration of active ingredient of 0.5% w/v, to prepare a test drug solution. The test was performed in the same manner as in Test Example 3.

Test [5] deals with last instar larvae of common house mosquitoes (Culex pipiens pallens). Nature of the test: Larvicidal test on common house mosquito larvae in water (Test Examples 9, 10). The following applies: 192 h, active ingredient 3.5 ppm in water, after 8 days. How it is done:
Each of the formulations of Compounds (26) and (45) of the present invention obtained in Formulation Example 15 was diluted with water, so as to have a concentration of active ingredient of 500 ppm, to prepare a test drug solution.
0.7 ml of the test drug solution was added to 100 ml of ion-exchanged water (a concentration of active ingredient of 3.5 ppm).
Each of the formulations of Compounds (5), (6), (24), (27), (29), (30), (33), (38) and (47) of the present invention obtained in Formulation Example 15 was diluted with water, so as to have a concentration of active ingredient of 500 ppm, to prepare a test drug solution.

Each structure is given as a SMILES string. Some results are limits rather than exact numbers.

As for `CCCC[C@@H]1C[C@H]1/C=C/C(=O)NCC1CCOC1` (relative stereo) [Compound (19), (E)-N-(tetrahydrofuran-3-ylmethyl)-3-(trans-2′-butylcyclopropyl)-2-propenamide], the knockdown rate in test [1] is at least 90%.
On to `CCCCC1C(/C=C/C(=O)NCC2CCOCC2)C1(C)C` (stereo not drawn) [Compound (43), (E)-N-(tetrahydropyran-4-ylmethyl)-3-(trans-2′-butyl-3′,3′-dimethylcyclopropyl)-2-propenamide], for which, in test [2], the controlling value came to 100%.
On to `CCCCCC/C(C)=C(\F)C(=O)NCC1CCOCC1` [Compound (29), (Z)—N-(tetrahydropyran-4-ylmethyl)-2-fluoro-3-methyl-2-nonenamide], for which the pest or weed control at 500 ppm in test [3] is 100%. Further, the mortality at 500 ppm in test [4] was at least 90%. Moreover, the pest or weed control at 0.5 % with adult houseflies was at least 80%. In test [5], the mortality at 3.5 ppm is at least 95%.

The term mortality denotes the share of the test organisms that died. High values mean fewer survivors, low ones more survivors.

The values above are taken from patent US20150045409A1, “AMIDE COMPOUND AND USE THEREOF FOR PEST CONTROL” (SUMITOMO CHEMICAL COMPANY, LIMITED, priority 2012, published 2015).
